Test results: patent US20100267561A1, “HERBICIDAL PYRIDAZINONE DERIVATIVES” (priority 2007, published 2010)
Read-outs that look alike come from different tables or passages of the source.

How the values were obtained:
Assay type in all cases: in vivo
[1] = tested on: blackgrass (Alopecurus myosuroides); assay: Test B pre-/postemergence plant response; settings: Preemergence
Description: (§1) Seeds of plant species selected from blackgrass (Alopecurus myosuroides), downy bromegrass (Bromus tectorum), green foxtail (Setaria viridis), Italian ryegrass (Lolium multiflorum), wheat (Triticum aestivum), wild oat (Avena fatua), catchweed bedstraw (Galium aparine), bermudagrass (Cynodon dactylon), surinam grass (Brachiaria decumbens), cocklebur (Xanthium strumarium), corn (Zea mays), large crabgrass (Digitaria sanguinalis), woolly cupgrass (Eriochloa villosa), giant foxtail (Setaria faberii), goosegrass (Eleusine indica), johnsongrass (Sorghum halepense), kochia (Kochia scoparia), lambsquarters (Chenopodium album), morningglory (Ipomoea coccinea), eastern black (E.B.) nightshade (Solanum ptycanthum), yellow nutsedge (Cyperus esculentus), pigweed (Amaranthus retroflexus), common ragweed (Ambrosia elation), Russian thistle (Salsola iberica), soybean (Glycine max), common (oilseed) sunflower (Helianthus annuus), and velvetleaf (Abutilon theophrasti) were planted and treated preemergence with test chemicals formulated in a non-phytotoxic solvent mixture which included a surfactant.
(§2) At the same time, plants selected from these crop and weed species and also winter barley (Hordeum vulgare), canarygrass (Phalaris minor), chickweed (Stellaria media) and windgrass (Apera spica-venti) were treated with postemergence applications of some of the test chemicals formulated in the same manner. Plants ranged in height from 2 to 18 cm (1- to 4-leaf stage) for postemergence treatments.
(§3) Plant species in the flooded paddy test consisted of rice (Oryza sativa), umbrella sedge (Cyperus difformis), ducksalad (Heteranthera limosa) and barnyardgrass (Echinochloa crus-galli) grown to the 2-leaf stage for testing. At time of treatment, test pots were flooded to 3 cm above the soil surface, treated by application of test compounds directly to the paddy water, and then maintained at that water depth for the duration of the test. Treated plants and controls were maintained in a greenhouse for 13 to 15 days, after which time all species were compared to controls and visually evaluated. Plant response ratings, summarized in Table B, are based on a scale of 0 to 100 where 0 is no effect and 100 is complete control. A dash (-) response means no test result.

[2] = tested on: catchweed bedstraw (Galium aparine); assay: Test B pre-/postemergence plant response; settings: Preemergence
Description: as §1, §2, §3

[3] = tested on: yellow nutsedge (Cyperus esculentus); assay: Test B pre-/postemergence plant response; settings: Preemergence
Description: as §1, §2, §3

[4] = tested on: barnyardgrass (Echinochloa crus-galli); assay: Test A pre-/postemergence plant response; settings: Echinochloa crus-galli, 240 h, read-out: Plant response rating, Barnyardgrass; for pest or weed control at 125 g/ha: 125 g ai/ha; for pest or weed control at 500 g/ha: 500 g ai/ha
In short: (§4)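 Seeds in loam soil/sand blend treated preemergence by directed soil spray, with simultaneous postemergence spray on 2–10 cm plants at one- to two-leaf stage; compounds in non-phytotoxic solvent with surfactant. Injury visually rated versus untreated controls after about 10 days in greenhouse, 0 (no effect) to 100 (complete control).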

[5] = tested on: large crabgrass (Digitaria sanguinalis); assay: Test A pre-/postemergence plant response; settings: Digitaria sanguinalis, 240 h, read-out: Plant response rating, Crabgrass, Large; for pest or weed control at 125 g/ha: 125 g ai/ha; for pest or weed control at 500 g/ha: 500 g ai/ha
In short: as §4

[6] = tested on: velvetleaf (Abutilon theophrasti); assay: Test A pre-/postemergence plant response
In short: as §4

corn (Zea mays) = assay: Test A pre-/postemergence plant response; settings: Zea mays, 240 h; for Corn plant response rating (crop injury, 0 = no effect, 100 = complete kill) at 125 g/ha: 125 g ai/ha; for Corn plant response rating (crop injury, 0 = no effect, 100 = complete kill) at 500 g/ha: 500 g ai/ha
In short: as §4

[7] = tested on: giant foxtail (Setaria faberi); assay: Test A pre-/postemergence plant response; settings: Setaria faberi, 240 h, read-out: Plant response rating, Foxtail, Giant; for pest or weed control at 125 g/ha: 125 g ai/ha; for pest or weed control at 500 g/ha: 500 g ai/ha
In short: as §4

[8] = tested on: morningglory (Ipomoea coccinea); assay: Test A pre-/postemergence plant response
In short: as §4

[9] = tested on: pigweed (Amaranthus retroflexus); assay: Test A pre-/postemergence plant response; settings: Amaranthus retroflexus, 240 h, read-out: Plant response rating, Pigweed; for pest or weed control at 125 g/ha: 125 g ai/ha; for pest or weed control at 500 g/ha: 500 g ai/ha
In short: as §4

[10] = tested on: wheat (Triticum aestivum); assay: Test A pre-/postemergence plant response; settings: Triticum aestivum, 240 h, read-out: Plant response rating, Wheat; for plant injury at 125 g/ha: 125 g ai/ha; for plant injury at 500 g/ha: 500 g ai/ha
In short: as §4

[11] = post-emergence, Postemergence, 0 to 100 scale, 0 no effect, 100 complete control
[12] = pre-emergence, Preemergence, 0 to 100 scale (0 no effect, 100 complete control)
[13] = Postemergence, 125 g ai/ha, 0 to 100 scale, 0 no effect, 100 complete control
[14] = Postemergence, 500 g ai/ha, 0 to 100 scale, 0 no effect, 100 complete control
[15] = Preemergence, 125 g ai/ha, 0 to 100 scale (0 no effect, 100 complete control)
[16] = Preemergence, 500 g ai/ha, 0 to 100 scale (0 no effect, 100 complete control)

In the case of `Cc1cn(-c2ccc(Cl)cc2)nc1-c1c(O)cnn(C)c1=O` [Compound 30, 4-[1-(4-chlorophenyl)-4-methyl-1H-pyrazol-3-yl]-5-hydroxy-2-methyl-3(2H)-pyridazinone], the pest or weed control at 16 g/ha ([1]; Alopecurus myosuroides, pre-emergence, 16 g ai/ha, scale 0 to 100 (0 no effect, 100 complete control), read-out: Plant response rating, Blackgrass) is reported as 60%, the pest or weed control at 31 g/ha ([1]; Alopecurus myosuroides, pre-emergence, 31 g ai/ha, 0 to 100 scale, 0 no effect, 100 complete control, read-out: Plant response rating, Blackgrass) is reported as 100% and the pest or weed control at 62 g/ha ([1]; Alopecurus myosuroides, pre-emergence, 62 g ai/ha, scale 0 to 100, read-out: Plant response rating, Blackgrass) is reported as 100%. For the same compound, the “Blackgrass plant response rating” value ([1]; 8 g ai/ha, scale 0 to 100) was 0, the pest or weed control at 16 g/ha ([2]; Galium aparine, pre-emergence, 16 g ai/ha, scale 0 to 100 (0 no effect, 100 complete control), read-out: Plant response rating, Galium) was 0% and the pest or weed control at 31 g/ha ([2]; Galium aparine, pre-emergence, 31 g ai/ha, 0 to 100 scale, 0 no effect, 100 complete control, read-out: Plant response rating, Galium) was 0%. For the same compound, the pest or weed control at 62 g/ha ([2]; Galium aparine, pre-emergence, 62 g ai/ha, scale 0 to 100, read-out: Plant response rating, Galium) was 0%, the “Galium plant response rating” value ([2]; 8 g ai/ha, scale 0 to 100) was 0 and the pest or weed control at 16 g/ha ([3]; Cyperus, pre-emergence, 16 g ai/ha, scale 0 to 100 (0 no effect, 100 complete control), read-out: Plant response rating, Nutsedge, Yellow) was 0%. The pest or weed control at 31 g/ha ([3]; Cyperus, pre-emergence, 31 g ai/ha, 0 to 100 scale, 0 no effect, 100 complete control, read-out: Plant response rating, Nutsedge, Yellow) was 0%, the pest or weed control at 62 g/ha ([3]; Cyperus, pre-emergence, 62 g ai/ha, scale 0 to 100, read-out: Plant response rating, Nutsedge, Yellow) was 0% and the “Nutsedge, Yellow plant response rating” value ([3]; 8 g ai/ha, scale 0 to 100) was 0. The pest or weed control at 125 g/ha [4, 11] was 50%, the pest or weed control at 500 g/ha [4, 11] was 90% and the pest or weed control at 125 g/ha [4, 12] was 100%. For the same compound, the pest or weed control at 500 g/ha [4, 12] was 100%, the pest or weed control at 125 g/ha [5, 11] was 60% and the pest or weed control at 500 g/ha [5, 11] was 90%. The pest or weed control at 125 g/ha [5, 12] was 100%, the pest or weed control at 500 g/ha [5, 12] was 100% and the “Plant response rating, Velvetleaf” value [6, 13] was 0. The “Plant response rating, Velvetleaf” value [6, 14] was 0, the “Plant response rating, Velvetleaf” value [6, 15] was 0 and the “Plant response rating, Velvetleaf” value [6, 16] was 0. For the same compound, the Corn plant response rating (crop injury, 0 = no effect, 100 = complete kill) at 125 g/ha (corn (Zea mays); [11]) was 0%, the Corn plant response rating (crop injury, 0 = no effect, 100 = complete kill) at 500 g/ha (corn (Zea mays); [11]) was 70% and the Corn plant response rating (crop injury, 0 = no effect, 100 = complete kill) at 125 g/ha (corn (Zea mays); [12]) was 0%. It also gave a Corn plant response rating (crop injury, 0 = no effect, 100 = complete kill) at 500 g/ha (corn (Zea mays); [12]) of 70%, a pest or weed control at 125 g/ha [7, 11] of 80% and a pest or weed control at 500 g/ha [7, 11] of 90%. The pest or weed control at 125 g/ha [7, 12] was 100%, the pest or weed control at 500 g/ha [7, 12] was 100% and the “Plant response rating, Morningglory” value [8, 13] was 0. The “Plant response rating, Morningglory” value [8, 14] was 0, the “Plant response rating, Morningglory” value [8, 15] was 0 and the “Plant response rating, Morningglory” value [8, 16] was 0. It also gave a pest or weed control at 125 g/ha [9, 11] of 0%, a pest or weed control at 500 g/ha [9, 11] of 0% and a pest or weed control at 125 g/ha [9, 12] of 0%. For the same compound, the pest or weed control at 500 g/ha [9, 12] was 0%, the plant injury at 125 g/ha [10, 11] was 40% and the plant injury at 500 g/ha [10, 11] was 50%. It also gave a plant injury at 125 g/ha [10, 12] of 40% and a plant injury at 500 g/ha [10, 12] of 90%.
